Where two headings read alike, the source gives them in different places.
Columns and labels:
FLT-3 = molecular target: T1, FLT-3 (Homo sapiens, UniProt P36888); experiment: FLT-3 inhibition assay, radiometric filter-binding; type: biochemical; details: 90 μM ATP
T1 sequence (P36888 27-993): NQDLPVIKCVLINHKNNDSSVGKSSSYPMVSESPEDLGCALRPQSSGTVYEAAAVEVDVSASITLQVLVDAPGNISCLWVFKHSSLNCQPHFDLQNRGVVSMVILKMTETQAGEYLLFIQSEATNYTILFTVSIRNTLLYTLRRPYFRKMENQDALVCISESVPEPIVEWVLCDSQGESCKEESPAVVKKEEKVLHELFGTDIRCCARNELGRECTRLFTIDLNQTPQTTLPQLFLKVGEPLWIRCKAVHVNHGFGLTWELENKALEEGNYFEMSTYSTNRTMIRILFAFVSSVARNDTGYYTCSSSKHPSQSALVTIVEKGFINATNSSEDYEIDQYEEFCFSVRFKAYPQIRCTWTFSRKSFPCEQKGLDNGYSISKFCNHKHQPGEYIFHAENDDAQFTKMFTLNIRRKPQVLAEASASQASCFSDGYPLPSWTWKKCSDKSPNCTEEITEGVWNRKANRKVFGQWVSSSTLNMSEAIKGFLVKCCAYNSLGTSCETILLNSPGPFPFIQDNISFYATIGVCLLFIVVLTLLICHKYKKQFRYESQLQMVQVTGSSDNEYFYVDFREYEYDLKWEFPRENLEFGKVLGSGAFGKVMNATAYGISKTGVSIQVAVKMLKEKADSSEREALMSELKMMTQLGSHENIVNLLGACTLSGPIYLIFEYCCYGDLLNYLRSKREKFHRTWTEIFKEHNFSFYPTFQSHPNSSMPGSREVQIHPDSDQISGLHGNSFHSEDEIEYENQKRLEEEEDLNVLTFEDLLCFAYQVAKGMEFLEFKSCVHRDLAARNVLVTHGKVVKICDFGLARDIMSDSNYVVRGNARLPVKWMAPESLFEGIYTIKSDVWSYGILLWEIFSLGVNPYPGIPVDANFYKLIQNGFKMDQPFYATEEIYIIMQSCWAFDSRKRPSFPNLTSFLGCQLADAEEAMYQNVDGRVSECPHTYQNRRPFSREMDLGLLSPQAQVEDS
Protocol: This assay monitors the ^33P incorporation into a substrate poly(Glu, Tyr) 4:1 (pE4Y). Reactions were carried out in a solution containing 100 mM HEPES (pH 7.5), 10 mM MgCl2, 25 mM NaCl, 1 mM DTT, 0.01% BSA and 2.5% DMSO. Final substrate concentrations in the assay were 90 μM ATP and 0.5 mg/ml pE4Y (both from Sigma Chemicals, St Louis, Mo.). The final concentration of a compound of the present invention was generally between 0.01 and 5 μM. Typically, a 12-point titration was conducted by preparing serial dilutions from 10 mM DMSO stock of test compound. Reactions were carried out at room temperature.
Two assay solutions were prepared. Solution 1 contains 100 mM HEPES (pH 7.5), 10 mM MgCl2, 25 mM NaCl, 1 mg/ml pE4Y and […] (containing 0.3 mCi of [γ-33^P]ATP for each reaction). Solution 2 contains 100 mM HEPES (pH 7.5), 10 mM MgCl2, 25 mM NaCl, 2 mM DTT, 0.02% BSA and 3 nM FLT-3. The assay was run on a 96 well plate by mixing 50 μl each of Solution 1 and […] of the compounds of the present invention. The reaction was initiated with Solution 2. […] All of the reaction volume was then transferred to a filter plate and washed with 5% TCA by a Harvester 9600 from TOMTEC (Hamden, Conn.). The amount of ^33P incorporation into pE4y was analyzed by a Packard Top Count Microplate Scintillation Counter (Meriden, Conn.). The data was fitted using Prism software to get an IC50 or Ki.

JAK-2 = JAK-2 (Homo sapiens, UniProt O60674); experiment: JAK2 inhibition assay; type: biochemical; details: 12 μM ATP
Chain of JAK-2 (O60674 whole entry, species assumed): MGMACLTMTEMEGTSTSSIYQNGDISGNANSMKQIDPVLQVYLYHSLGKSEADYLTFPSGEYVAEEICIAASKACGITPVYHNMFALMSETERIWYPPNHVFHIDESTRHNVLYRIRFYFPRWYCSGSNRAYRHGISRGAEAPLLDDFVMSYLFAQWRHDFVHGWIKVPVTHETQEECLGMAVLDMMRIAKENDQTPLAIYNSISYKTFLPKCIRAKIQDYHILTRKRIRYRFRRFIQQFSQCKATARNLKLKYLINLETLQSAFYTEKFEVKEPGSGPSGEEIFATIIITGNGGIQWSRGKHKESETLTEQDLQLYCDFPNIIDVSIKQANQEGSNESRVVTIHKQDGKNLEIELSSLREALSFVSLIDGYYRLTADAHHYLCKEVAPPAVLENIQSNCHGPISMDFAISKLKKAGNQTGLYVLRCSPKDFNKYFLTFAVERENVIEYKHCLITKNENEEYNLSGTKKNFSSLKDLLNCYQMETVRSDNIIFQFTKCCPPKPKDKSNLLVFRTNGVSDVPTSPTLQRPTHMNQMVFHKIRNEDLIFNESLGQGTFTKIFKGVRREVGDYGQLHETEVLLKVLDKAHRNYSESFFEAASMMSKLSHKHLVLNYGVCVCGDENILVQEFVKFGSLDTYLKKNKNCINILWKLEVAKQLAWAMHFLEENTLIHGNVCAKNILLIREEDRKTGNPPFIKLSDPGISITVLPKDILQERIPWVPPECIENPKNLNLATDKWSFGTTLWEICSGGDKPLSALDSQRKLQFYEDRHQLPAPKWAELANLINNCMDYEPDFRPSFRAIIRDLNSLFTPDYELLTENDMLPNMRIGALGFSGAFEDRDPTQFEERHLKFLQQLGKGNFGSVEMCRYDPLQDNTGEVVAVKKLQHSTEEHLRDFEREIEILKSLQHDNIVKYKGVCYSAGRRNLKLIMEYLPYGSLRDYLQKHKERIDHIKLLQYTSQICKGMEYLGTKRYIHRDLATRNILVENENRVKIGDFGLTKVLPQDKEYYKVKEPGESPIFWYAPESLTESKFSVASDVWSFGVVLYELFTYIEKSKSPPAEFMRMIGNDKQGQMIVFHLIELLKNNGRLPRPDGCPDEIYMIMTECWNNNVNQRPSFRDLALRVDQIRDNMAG

Aurora-1 (Aurora B) = Aurora-1 (Aurora B) (Homo sapiens, UniProt Q96GD4); experiment: Aurora-1 (Aurora B) inhibition assay (radiometric); type: biochemical
Chain of Aurora-1 (Aurora B) (Q96GD4 whole entry): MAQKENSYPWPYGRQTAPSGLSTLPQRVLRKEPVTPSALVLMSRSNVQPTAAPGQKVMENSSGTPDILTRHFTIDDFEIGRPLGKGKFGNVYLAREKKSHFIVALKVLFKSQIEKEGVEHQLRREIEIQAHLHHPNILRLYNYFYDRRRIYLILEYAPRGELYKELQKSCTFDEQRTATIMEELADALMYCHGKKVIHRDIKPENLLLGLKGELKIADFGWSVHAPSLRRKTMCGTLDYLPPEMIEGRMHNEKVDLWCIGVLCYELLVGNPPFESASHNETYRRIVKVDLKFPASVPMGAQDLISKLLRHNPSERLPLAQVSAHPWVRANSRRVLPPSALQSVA
Protocol: An assay buffer solution was prepared which consisted of 25 mM HEPES (pH 7.5), 10 mM MgCl2, 0.1% BSA and 10% glycerol. […] To 22 μL of the Aurora-B solution, in a 96-well plate, was added 2 μl of a compound stock solution in DMSO and the mixture allowed to equilibrate for 10 minutes at 25° C. The enzyme reaction was initiated by the addition of 16 μl stock [γ-^33P]-ATP solution (˜20 nCi/μL) prepared in assay buffer, to a final assay concentration of 800 μM. The reaction was stopped after 3 hours by the addition of 16 μL 500 mM phosphoric acid and the levels of ^33P incorporation into the peptide substrate were determined by the following method.
A phosphocellulose 96-well plate (Millipore, Cat no. MAPHNOB50) was pre-treated with 100 μL of a 100 mM phosphoric acid prior to the addition of the enzyme reaction mixture (40 μL). The solution was left to soak on to the phosphocellulose membrane for 30 minutes and the plate subsequently washed four times with 200 μL of a 100 mM phosphoric acid. […] Levels of non-enzyme catalyzed background radioactivity were determined by adding 16 μL of the 500 mM phosphoric acid to control wells, containing all assay components (which acts to denature the enzyme), prior to the addition of the [γ-^33P]-ATP solution. Levels of enzyme catalyzed ^33P incorporation were calculated by subtracting mean background counts from those measured at each inhibitor concentration. […] Ki values were calculated from initial rate data by non-linear regression using the Prism software package (Prism 3.0, Graphpad Software, San Diego, Calif.).

Colo205 cells = experiment: Colo205 cell proliferation, 3H thymidine incorporation; type: cell-based; details: Homo sapiens
Protocol: Colo205 cells were seeded in 96 well plates and serially diluted compound was added to the wells in duplicate. Control groups included untreated cells, the compound diluent (0.1% DMSO alone) and culture medium without cells.
To measure proliferation, 3 h prior to the end of the experiment 0.5 μCi of 3H thymidine was added to each well. Cells were then harvested and the incorporated radioactivity counted on a Wallac microplate beta-counter. Cell viability was assessed using Promega CellTiter 96AQ to measure MTS conversion. Dose response curves were calculated using either Prism 3.0 (GraphPad) or SoftMax Pro 4.3.1 LS (Molecular Devices) software.

[1] = 800 μM ATP, read-out: Aurora B Ki
[2] = COLO 205, read-out: Colo205 inh 3H-Thy incorporation after 72 hours IC50 (uM)
[3] = COLO 205, read-out: Colo205 inh 3H-Thy incorporation after 96 hours IC50 (uM)

| SMILES | Ki (FLT-3) [nM] | Ki (JAK-2) [nM] | Ki (Aurora-1 (Aurora B); [1]) [nM] | IC50 (Colo205 cells; [2]) [µM] | IC50 (Colo205 cells; [3]) [µM] | Ki (Aurora-1 (Aurora B)) [nM] |
| --- | --- | --- | --- | --- | --- | --- |
| Cc1cc(Nc2cc(N3CC(F)(C4CC4)C3)nc(Sc3ccc(NC(=O)C4CC4(F)F)cc3)n2)[nH]n1 (stereo not drawn) [Compound I-20] | 72 | 51 | 18 | 0.012 | – | – |
| CCC(=O)Nc1ccc(Sc2nc(Nc3cc(C)n[nH]3)cc(N3CC(O)(C(C)C)C3)n2)cc1 [Compound I-5] | 21 | 26 | 14 | – | 0.033 | – |
| Cc1cc(Nc2cc(N3CC(F)(C4CC4)C3)nc(Sc3ccc(NC(=O)CC4CC4)cc3)n2)[nH]n1 [Compound I-19] | 140 | 130 | 21 | 0.05 | – | – |
| CCC(=O)Nc1ccc(Sc2nc(Nc3cc(C)n[nH]3)cc(N3CC(O)(C4CC4)C3)n2)cc1 [Compound I-2] | 36 | 26 | 7.6 | 0.026 | 0.026 | – |
| Cc1cc(Nc2cc(N3CC(F)(C4CC4)C3)nc(Sc3ccc(NC(=O)C4CC4)cc3)n2)n[nH]1 [Compound I-13] | 43 | 110 | 22 | 0.072 | 0.039 | – |
| Cc1cc(Nc2cc(N3CC(O)(C4CC4)C3)nc(Sc3ccc(NC(=O)C4CC4)cc3F)n2)[nH]n1 [Compound I-11, N-(4-((4-(3-methyl-1H-pyrazol-5-ylamino)-6-(3-cyclopropyl-3-hydroxyazetidin-1-yl)pyrimidin-2-yl)sulfanyl)-3-fluorophenyl)cyclopropanecarboxamide] | 20 | 15 | 9 | – | 0.028 | – |
| Cc1cc(Nc2cc(N3CC(O)(C4CC4)C3)nc(Sc3ccc(NC(=O)C4CC4)cc3)n2)n[nH]1 [Compound I-8] | 28 | 41 | 7.1 | 0.04 | 0.033 | – |
| CCC(=O)Nc1ccc(Sc2nc(Nc3cc(C)n[nH]3)cc(N3CC(O)(C4CCCC4)C3)n2)cc1 [Compound I-3] | 26 | 34 | 6.5 | 0.002 | 0.004 | – |
| CCC(=O)Nc1ccc(Sc2nc(Nc3cc(C)n[nH]3)cc(N3CC(O)(C(C)CC)C3)n2)cc1 (stereo not drawn) [Compound I-6] | 48 | 44 | – | – | 0.024 | 6.2 |
| Cc1cc(Nc2cc(N3CC(O)(C4CC4)C3)nc(Sc3ccc(NC(=O)C4CC4(F)F)cc3)n2)[nH]n1 (stereo not drawn) [Compound I-12] | 15 | 2.9 | 3 | 0.019 | – | – |
| O=C(Nc1ccc(Sc2nc(Nc3cc(C4CC4)[nH]n3)cc(N3CC(O)(C4CC4)C3)n2)cc1)C1CC1 [Compound I-10] | 2.5 | 54 | 7 | – | 0.042 | – |
| Cc1cc(Nc2cc(N3CC(F)(C4CC4)C3)nc(Sc3ccc(NC(=O)CC(F)(F)F)cc3)n2)[nH]n1 [Compound I-14, N-(4-(4-(3-methyl-1H-pyrazol-5-ylamino)-6-(3-cyclopropyl-3-fluoroazetidin-1-yl)pyrimidin-2-ylthio)phenyl)-3,3,3-trifluoropropanamide] | 65 | 11 | 6.8 | 0.006 | 0.006 | – |
| Cc1cc(Nc2cc(N3CC(O)(C4CC4)C3)nc(Sc3ccc(NC(=O)C4CCCC4)cc3)n2)[nH]n1 [Compound I-9, N-(4-((4-(3-methyl-1H-pyrazol-5-ylamino)-6-(3-cyclopropyl-3-hydroxyazetidin-1-yl)pyrimidin-2-yl)sulfanyl)phenyl)cyclopentanecarboxamide] | 110 | 22 | < 6 | – | 0.016 | – |
| Cc1cc(Nc2cc(N3CC(F)(C4CC4)C3)nc(Sc3ccc(NC(=O)C4CC4)cc3F)n2)n[nH]1 [Compound I-18] | 160 | 360 | – | 0.027 | – | 18 |
| Cc1cc(Nc2cc(N3CC(F)(C4CC4)C3)nc(Sc3ccc(NC(=O)CC(F)(F)F)nc3)n2)[nH]n1 [Compound I-21, N-(5-(4-(3-methyl-1H-pyrazol-5-ylamino)-6-(3-cyclopropyl-3-fluoroazetidin-1-yl)pyrimidin-2-ylthio)pyridin-2-yl)-3,3,3-trifluoropropanamide] | 120 | 28 | 9.5 | 0.02 | – | – |
| CCC(=O)Nc1ccc(Sc2nc(Nc3cc(C4CC4)[nH]n3)cc(N3CC(O)(C4CC4)C3)n2)cc1 [Compound I-7] | 23 | 23 | < 6 | – | 0.022 | – |

Reference: patent US8129399B2, “Aminopyrimidines useful as kinase inhibitors” (Vertex Pharmaceuticals Incorporated, priority 2005, dated 2012)
